Data published in PMC6934184, “Selective DNA-PKcs inhibition extends the therapeutic index of localized radiotherapy and chemotherapy” (The Journal of Clinical Investigation, 2019).

Target: T1, PRKCG (PKC gamma) (Homo sapiens, UniProt P05129)
T1 construct: purchased Thermo Fisher Scientific (Life Technologies) SelectScreen
Assay: SelectScreen Z'LYTE
Type: biochemical
Outline: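 NU5455 was profiled across the SelectScreen Broad panel of kinase activity and binding assays. Z'LYTE reactions such as CSF1R ran at apparent Km ATP, while the Adapta CAMK1 assay used ATP listed as 10. Values are given as percent.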

CN(C(=O)CN1CCOCC1)c1ccc2sc3c(-c4cccc5c(=O)cc(N6CC7CCC(C6)O7)oc45)cccc3c2c1 [NU5455]
inhibition at 1 µM: 7.6%
